In ChEMBL document CHEMBL5465560, “Selectivity Literature for EUbOPEN Chemogenomic Library” (2024) one finds % activity, % binding and % of inhibition data, which are given here for four compounds.

Test [1] has as its target T1, Protein arginine N-methyltransferase 9 (Homo sapiens) (UniProt Q6P2P2).
T1 sequence (whole entry): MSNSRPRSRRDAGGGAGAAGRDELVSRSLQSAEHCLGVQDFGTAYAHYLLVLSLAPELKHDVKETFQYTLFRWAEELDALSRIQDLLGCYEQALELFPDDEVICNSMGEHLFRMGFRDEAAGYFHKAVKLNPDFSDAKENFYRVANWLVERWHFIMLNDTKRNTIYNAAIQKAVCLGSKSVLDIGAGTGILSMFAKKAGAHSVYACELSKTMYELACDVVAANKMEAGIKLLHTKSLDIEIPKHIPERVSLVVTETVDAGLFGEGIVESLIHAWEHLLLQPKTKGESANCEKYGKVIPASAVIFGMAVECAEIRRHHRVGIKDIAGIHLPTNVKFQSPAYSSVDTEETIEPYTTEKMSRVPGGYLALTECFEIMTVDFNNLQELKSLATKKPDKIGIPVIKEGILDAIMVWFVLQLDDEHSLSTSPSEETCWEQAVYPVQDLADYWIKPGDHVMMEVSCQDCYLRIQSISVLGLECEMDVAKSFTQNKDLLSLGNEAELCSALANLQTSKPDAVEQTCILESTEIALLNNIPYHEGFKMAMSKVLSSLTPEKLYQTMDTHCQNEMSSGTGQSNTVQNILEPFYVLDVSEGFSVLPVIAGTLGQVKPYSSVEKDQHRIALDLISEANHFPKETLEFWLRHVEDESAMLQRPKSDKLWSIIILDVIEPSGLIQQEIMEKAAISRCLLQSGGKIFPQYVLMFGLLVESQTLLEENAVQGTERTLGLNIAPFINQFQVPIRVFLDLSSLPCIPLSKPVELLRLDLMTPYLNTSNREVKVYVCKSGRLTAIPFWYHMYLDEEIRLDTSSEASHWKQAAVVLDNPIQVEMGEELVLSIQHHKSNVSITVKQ
The note with it: at 1 µM.

Test [2] concerns the target T2, Ephrin type-B receptor 2 (Homo sapiens) (UniProt P29323).
T2 sequence (whole entry): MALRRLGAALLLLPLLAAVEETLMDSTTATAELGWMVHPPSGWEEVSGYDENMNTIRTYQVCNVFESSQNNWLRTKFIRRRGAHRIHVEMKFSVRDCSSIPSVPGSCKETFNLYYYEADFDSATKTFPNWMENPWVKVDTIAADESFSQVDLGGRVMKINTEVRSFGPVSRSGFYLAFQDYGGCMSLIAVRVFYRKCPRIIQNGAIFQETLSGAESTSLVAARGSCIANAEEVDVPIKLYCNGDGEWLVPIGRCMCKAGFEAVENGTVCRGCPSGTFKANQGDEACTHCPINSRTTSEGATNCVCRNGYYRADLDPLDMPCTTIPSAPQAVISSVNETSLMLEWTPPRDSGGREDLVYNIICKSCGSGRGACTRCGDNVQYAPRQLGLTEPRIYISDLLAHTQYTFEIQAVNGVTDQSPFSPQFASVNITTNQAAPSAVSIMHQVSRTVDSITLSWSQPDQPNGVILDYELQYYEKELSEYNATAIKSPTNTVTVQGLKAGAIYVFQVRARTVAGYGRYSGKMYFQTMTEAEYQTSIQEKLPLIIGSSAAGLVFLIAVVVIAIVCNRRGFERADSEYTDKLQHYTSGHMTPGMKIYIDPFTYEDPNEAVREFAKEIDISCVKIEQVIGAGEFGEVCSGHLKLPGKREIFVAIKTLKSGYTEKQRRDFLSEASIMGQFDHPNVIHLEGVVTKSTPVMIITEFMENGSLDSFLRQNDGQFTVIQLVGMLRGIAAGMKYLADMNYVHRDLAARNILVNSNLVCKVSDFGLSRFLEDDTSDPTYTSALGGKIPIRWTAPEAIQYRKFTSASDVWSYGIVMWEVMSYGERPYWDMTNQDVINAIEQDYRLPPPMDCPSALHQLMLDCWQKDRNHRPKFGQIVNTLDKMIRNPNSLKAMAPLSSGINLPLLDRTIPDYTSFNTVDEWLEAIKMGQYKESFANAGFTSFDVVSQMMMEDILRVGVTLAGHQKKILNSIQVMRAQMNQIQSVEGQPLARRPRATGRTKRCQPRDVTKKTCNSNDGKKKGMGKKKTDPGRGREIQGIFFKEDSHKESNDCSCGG
As to the kind of experiment: Selectivity interaction (KinomeScan (DiscoverX)) EUB0000229b EPHB2. The note with it: at 10 µM.

For test [3], the target named is T3, Gamma-aminobutyric acid receptor subunit alpha-1 (Homo sapiens) (UniProt P14867).
T3 sequence (whole entry): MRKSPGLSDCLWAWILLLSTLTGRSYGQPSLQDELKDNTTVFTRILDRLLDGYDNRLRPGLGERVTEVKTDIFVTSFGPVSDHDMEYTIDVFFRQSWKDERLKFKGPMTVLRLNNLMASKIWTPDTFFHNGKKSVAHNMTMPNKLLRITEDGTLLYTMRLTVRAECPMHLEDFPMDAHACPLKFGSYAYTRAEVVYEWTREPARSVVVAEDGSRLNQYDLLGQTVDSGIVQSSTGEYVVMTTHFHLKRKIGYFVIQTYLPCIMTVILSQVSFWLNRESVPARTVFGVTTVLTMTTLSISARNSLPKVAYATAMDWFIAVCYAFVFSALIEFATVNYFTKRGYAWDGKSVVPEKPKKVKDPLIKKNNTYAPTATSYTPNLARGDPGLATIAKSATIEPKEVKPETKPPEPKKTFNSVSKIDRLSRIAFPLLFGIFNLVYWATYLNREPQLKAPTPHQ
As to the kind of experiment: Selectivity interaction (GPCR panel (PDSP screen)) EUB0001079a GABRA1. The note with it: at 10 µM.

The target of test [4] is Protein-tyrosine kinase 6 (Homo sapiens, UniProt Q13882). As to the kind of experiment: Selectivity interaction (Kinase panel (Invitrogen)) EUB0000639a PTK6. The note with it: at 200 nM.
Sequence of Protein-tyrosine kinase 6 (Q13882 whole entry, looked up): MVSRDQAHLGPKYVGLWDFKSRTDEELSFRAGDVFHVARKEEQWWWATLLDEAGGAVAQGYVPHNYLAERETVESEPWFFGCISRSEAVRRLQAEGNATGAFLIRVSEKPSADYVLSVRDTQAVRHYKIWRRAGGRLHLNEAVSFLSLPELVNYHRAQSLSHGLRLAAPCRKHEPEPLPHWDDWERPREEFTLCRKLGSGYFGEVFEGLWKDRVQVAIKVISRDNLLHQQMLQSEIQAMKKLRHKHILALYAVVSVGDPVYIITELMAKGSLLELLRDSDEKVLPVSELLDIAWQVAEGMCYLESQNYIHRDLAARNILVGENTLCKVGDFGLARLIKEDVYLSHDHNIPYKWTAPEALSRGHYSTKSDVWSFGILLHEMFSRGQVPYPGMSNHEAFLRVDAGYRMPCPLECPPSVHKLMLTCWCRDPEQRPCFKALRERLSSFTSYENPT

Regarding `CNCCN1CCC(c2cc(CN(C)C(=O)c3cccc(Oc4ccccc4)c3)ccn2)CC1`, the % activity in test [1] was > 90%.
On to `COc1cc(N(C)c2ccnc3ccc(C(F)(F)F)cc23)cc(OC)c1OC`, for which, in test [2], the % binding amounted to 93%.
For `Nc1cnc(N2CCc3cc(S(=O)(=O)Nc4c(F)cc(Cl)cc4F)cc(N4CCCC4=O)c32)nc1` [TP-020n], the % of inhibition in test [3] was -1.96%.
`CC[C@@H]1[C@H](F)C(=O)N[C@@H]1COc1nccc2cc(C(N)=O)c(OC)cc12` [ZIMLOVISERTIB]: the % of inhibition in test [4] was -1.08%.
